Measurements as given in the supplement of paper PMC10307832.

Assays:
Test in all cases: relative viability (nuclei count vs DMSO), 5 days (fraction); higher = more cells survive
QS11 = compound: C1CC2=C(C1)C=C(C=C2)OC3=NC(=C4C(=N3)N(C=N4)CC5=CC=C(C=C5)C6=CC=CC=C6)N[C@@H](CC7=CC=CC=C7)CO [QS11]
In short: (§1)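 A plate was accepted only when its control CV was below 25% and the cells had doubled at least once. Viability is defined from nuclear counts as treated wells divided by vehicle wells, with the median taken across plates. That median covers lung cancer cell lines grown in 1536-well plates, dosed by pinning at five √10-spaced library-drug concentrations, and counted in MetaXpress from 4× Hoechst images after 5 days.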

Darinaparsin = compound: C[As](C)SC[C@H](NC(=O)CC[C@H](N)C(=O)O)C(=O)NCC(=O)O [Darinaparsin]
In short: as §1

AZ628 = compound: CC1=C(C=C(C=C1)NC(=O)C2=CC(=CC=C2)C(C)(C)C#N)NC3=CC4=C(C=C3)N=CN(C4=O)C [AZ628]
In short: as §1

AZ628 + Dasatinib = compound: CC1=C(C=C(C=C1)NC(=O)C2=CC(=CC=C2)C(C)(C)C#N)NC3=CC4=C(C=C3)N=CN(C4=O)C [AZ628] + Cc1nc(Nc2ncc(C(=O)Nc3c(C)cccc3Cl)s2)cc(N2CCN(CCO)CC2)n1 [Dasatinib] (partner 0.075 µM)
In short: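 Relative viability was taken as the ratio of nuclei in treated wells to nuclei in vehicle wells. Lung cancer cell lines in 1536-well plates received compounds by pin tool one day after seeding, either one drug alone or a fixed anchor-drug dose plus five library-drug doses (not always all listed) in √10 steps. Nuclei were counted on 4× images after 5 days of treatment, and values are medians of duplicate plates.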

Row | Cell Line | relative viability (QS11; 0.08 µM) | relative viability (QS11; 0.253 µM) | relative viability (QS11; 0.8 µM) | relative viability (QS11; 2.53 µM) | relative viability (QS11; 8 µM) | relative viability (Darinaparsin; 0.08 µM) | relative viability (Darinaparsin; 0.8 µM) | relative viability (Darinaparsin; 2.53 µM) | relative viability (Darinaparsin; 8 µM) | relative viability (AZ628; 0.08 µM) | relative viability (AZ628; 0.253 µM) | relative viability (AZ628; 0.8 µM) | relative viability (AZ628; 2.53 µM) | relative viability (AZ628; 8 µM) | relative viability (AZ628 + Dasatinib; first compound 0.08 µM) | relative viability (AZ628 + Dasatinib; first compound 0.253 µM) | relative viability (AZ628 + Dasatinib; first compound 0.8 µM) | relative viability (AZ628 + Dasatinib; first compound 2.53 µM) | relative viability (AZ628 + Dasatinib; first compound 8 µM)
1 | LXF-289 | 1 | 1.04 | 0.732 | 0.902 | 0.809 | 1.04 | 0.994 | 0.941 | 1.13 | 1 | 0.986 | 0.906 | 0.98 | 0.722 | 0.192 | 0.23 | 0.279 | 0.274 | 0.167
2 | NCI-H647 | 0.979 | 0.856 | 0.917 | 0.956 | 0.769 | 1.08 | 0.962 | 0.896 | 1.26 | 1.01 | 0.962 | 0.798 | 0.936 | 0.732 | 0.193 | 0.173 | 0.217 | 0.14 | 0.15
3 | NCI-H1651 | 0.906 | 1.01 | 0.857 | 0.988 | 0.899 | 1.15 | 1 | 0.942 | 1.18 | 0.986 | 1.01 | 0.986 | 1.08 | 1.12 | 0.517 | 0.384 | 0.408 | 0.392 | 0.535
4 | NCI-H838 | 0.99 | 0.915 | 0.784 | 0.908 | 0.872 | 0.997 | 0.931 | 0.991 | 1.14 | 1.02 | 0.992 | 0.951 | 0.932 | 0.868 | 0.287 | 0.291 | 0.297 | 0.274 | 0.284
5 | NCI-H661 | 0.992 | 0.977 | 0.853 | 1.01 | 1.03 | 0.999 | 1.01 | 1.03 | 1.12 | 1.08 | 1.05 | 0.861 | 0.938 | 0.842 | 0.87 | 0.644 | 0.629 | 0.666 | 0.659
6 | NCI-H1734 | 0.99 | 1.01 | 0.945 | 0.874 | 0.725 | 1.06 | 0.993 | 0.971 | 1.16 | 1.08 | 0.974 | 0.919 | 0.913 | 0.514 | 0.424 | 0.552 | 0.525 | 0.511 | 0.349
7 | HCC-827 | 1 | 1.13 | 0.813 | 1.02 | 0.931 | 1.09 | 1.02 | 1.07 | 1.16 | 1.03 | 1.01 | 1.03 | 1.07 | 0.839 | 0.364 | 0.295 | 0.296 | 0.25 | 0.18
8 | 201T | 0.994 | 0.909 | 0.819 | 0.895 | 0.828 | 0.996 | 0.998 | 0.947 | 0.986 | 1.03 | 0.997 | 1.07 | 1.06 | 1.04 | 0.592 | 0.533 | 0.53 | 0.513 | 0.471
9 | HCC-44 | 1.07 | 0.913 | 0.735 | 0.969 | 0.83 | 0.964 | 0.957 | 0.987 | 0.996 | 1.02 | 1.03 | 0.988 | 0.987 | 0.984 | – | – | – | – | –
10 | NCI-H650 | 0.841 | 0.908 | 1.01 | 0.932 | 0.89 | 0.988 | 1.01 | 0.967 | 0.947 | 1.13 | 1.05 | 1.3 | 1.1 | 1.26 | 0.529 | 0.487 | 0.463 | 0.558 | 0.434
11 | PC-3 [JPC-3] | 0.965 | 1.04 | 0.956 | 1.04 | 1.02 | 1.14 | 1.06 | 1.05 | 1.08 | 1.05 | 1.06 | 1.16 | 1.11 | 0.951 | 0.936 | 0.893 | 1.02 | 1.05 | 0.604
12 | NCI-H1395 | 0.833 | 0.976 | 1 | 0.881 | 0.986 | 0.995 | 0.883 | 0.815 | 0.938 | 1.02 | 0.794 | 0.92 | 0.92 | 0.832 | 0.411 | 0.426 | 0.416 | 0.423 | 0.362
13 | CAL-12T | 0.96 | 0.986 | 0.96 | 0.908 | 0.873 | 1.15 | 1 | 0.985 | 1.11 | 0.987 | 0.831 | 0.81 | 0.806 | 0.685 | 0.385 | 0.336 | 0.255 | 0.271 | 0.278
14 | Calu-6 | 1.11 | 1.06 | 0.941 | 1.1 | 1.07 | 1.2 | 0.99 | 1.01 | 1.14 | 1.02 | 0.899 | 0.754 | 0.784 | 0.207 | – | – | – | – | –
15 | NCI-H1648 | 0.748 | 0.972 | 0.744 | 0.978 | 1.11 | 0.735 | 0.803 | – | 0.975 | 1.14 | 1.08 | 0.726 | 0.597 | 0.641 | – | – | – | – | –
16 | A549 | 0.974 | 0.971 | 0.829 | 0.912 | 0.927 | 1 | 0.987 | 0.991 | 1.21 | 1.02 | 0.865 | 0.787 | 0.897 | 0.452 | – | – | – | – | –
17 | NCI-H1703 | 0.94 | 0.908 | 0.901 | 1.04 | 0.923 | 1.43 | 1.09 | 0.889 | 1.07 | 0.597 | 0.395 | 0.32 | 0.303 | 0.245 | – | – | – | – | –
18 | NCI-H1299 | 1.07 | 1.04 | 0.91 | 0.94 | 0.797 | 1.07 | 1.01 | 0.978 | 1.12 | 1.1 | 1.09 | 1.04 | 1.2 | 0.84 | – | – | – | – | –
19 | EBC-1 | 1.06 | 1.05 | 0.934 | 0.97 | 0.92 | 1.2 | 0.971 | 0.935 | 1.05 | 0.955 | 0.958 | 0.983 | 0.911 | 0.625 | – | – | – | – | –
